# In US5244916A, “Inhibition of respiratory burst using posttranslational modification inhibitors” (The Scripps Research Institute, priority 1992, dated 1993):
# Assays:
# Type in all cases: cell-based
# [1] = test system: HL-60 cells (NADPH oxidase / respiratory burst); experiment: Prevention of compactin-inhibition of FMLP-stimulated O2- formation in HL-60 cells by mevalonic acid and other supplements
# Experimental: (§1) HL-60 cells were maintained in stationary culture in RPMI 1640 medium (Gibco, Grand Island, NY) containing 10% fetal bovine serum at 37° C in an atmosphere of 95 air and 5% CO2. The cells (about 8×10^5 /ml) were differentiated into neutrophil-like cells by treatment with 1.3% DMSO for six days (Harris, et al., J. Leukocyte Biol. 37: 407-422 (1985)). The cells were treated with the indicated levels of compactin or lovastatin by addition of a 1,000-fold concentrated stock solution to the appropriate concentration on day 4 of differentiation. […] In studies of the protective effect of mevalonic acid, the compound was added as the mevalonolactone (Sigma Chemical Co., St. Louis, MO) at a concentration of 1 mM to the cell culture on days 4 to 6. Similarly, cholesterol was added in the form of LDL prepared according to the method of Curtiss and Edgington (Curtiss, et al., J. Biol. Chem. 257: 15213-15221 (1991)) at a final concentration of 50 μg/ml; ubiquinone (Sigma Chemical Co., St. Louis, MO) was added as Coenzyme Q-10 at a final concentration of 0.5 mM; and dolichol (Sigma Chemical Co., St. Louis, MO) was added as a dispersion in phosphatidylcholine at a final concentration of 0.5 mM (Cutts, et al., J. Cell Physiol. 139: 550-555 (1989)).
# O2 --formation by HL-60 cells was assessed by the SOD-sensitive reduction of cytochrome c. Cells were suspended at 1×10^7 /ml in Krebs-Ringer Hepes buffer with 5.5 mM glucose (KRHG) and 50-100μl of cells were added to a cuvette containing 100 μM cytochrome c (type III, Sigma Chemical Co., St. Louis, MO), ±300 μg/ml SOD (Sigma Chemical Co., St. Louis, MO) in 700-750 μl KRHG. Cytochalasin b (Sigma Chemical Co., St. Louis, MO) was added to a final concentration of 5 μg/ml, and the cells were incubated at 37° C. for five minutes while a stable baseline at a wavelength of 550 nm was obtained. O2 --formation was initiated by the addition of 1 μM N-formylmethionylleucylphenylalanine (FMLP; Sigma Chemical Co., St. Louis, MO) or 1μg/ml phorbol myristate acetate (PMA; Sigma Chemical Co., St. Louis, MO). Cytochrome c reduction at 550nm was continuously monitored and maximal rate and extent of the reaction calculated.
# Inhibition of protein isoprenylation can interfere with LMWG function without inhibiting overall cellular function (Maltese, supra (1990)). Since compactin inhibits at the enzymatic step preceding mevalonic acid synthesis, one should be able to reverse effects of compactin due specifically to inhibition of this pathway by addition of exogenous mevalonic acid.
# [2] = test system: cytochrome b558; experiment: Cytochrome b558 levels in HL-60 cells by Western blot; conditions: 10 μM compactin
# [3] = test system: Rap1; experiment: Western blot of Rap1 in membrane and cytosol fractions of HL-60 cells; conditions: 10 μM compactin
# Experimental: Western blots were performed as described in Bokoch, et al., Cell Biol. 106: 1927-1936 (1988).
# The ability of the concentrations of compactin used to inhibit endogenous HL-60 cell LMWG isoprenylation was assessed. Inhibition of Rapl isoprenylation was determined in two ways. Western blotting was used to evaluate the presence of Rap1 in cytosol or membrane fractions of compactin-treated vs. untreated cells (see FIG. 1). […] HL-60 cells were treated with ±10 μM compactin, and membrane and cytosol fractions were prepared as described in Example 1. Equal amounts of membrane protein (100 μg) and cytosol protein (70 μg), respectively,were loaded in each lane. Total membrane protein obtained in this experiment from about 3×10^8 cells was about 3 mg and cytosolic protein was about 2 mg. The samples were analyzed on 15% SDS-polyacrylamide gels (SDS-PAGE), transferred to nitrocellulose, and blotted with specific anti-Rapl antibody, R61, at 1:500 dilution. Detection was with ^125 I-goat anti-rabbit IgG and autoradiograms were exposed for 24-36 hours with intensifying screen at -70° C.
# [4] = test system: NADPH oxidase in HL-60 cells; experiment: Inhibition of NADPH oxidase activation / O2- generation in HL-60 cells (stimulus not singled out)
# Experimental: as §1, with “(1989)). O2 --formation by HL-60 cells was assessed by the SOD-sensitive reduction of cytochrome c. Cells were suspended at 1×10^7 /ml in Krebs-Ringer Hepes buffer with 5.5 mM glucose (KRHG) and 50-100μl of cells were added to a cuvette containing 100 μM cytochrome c (type III, Sigma Chemical Co., St. Louis, MO), ±300 μg/ml SOD (Sigma Chemical Co., St. Louis, MO) in 700-750 μl KRHG. Cytochalasin b (Sigma Chemical Co., St. Louis, MO) was added to a final concentration of 5 μg/ml, and the cells were incubated at 37° C. for five minutes while a stable baseline at a wavelength of 550 nm was obtained. O2 --formation was initiated by the addition of 1 μM N-formylmethionylleucylphenylalanine (FMLP; Sigma Chemical Co., St. Louis, MO) or 1μg/ml phorbol myristate acetate (PMA; Sigma Chemical Co., St. Louis, MO). Cytochrome c reduction at 550nm was continuously monitored and maximal rate and extent of the reaction calculated.” for “(1989)).”
# [5] = 4 μM compactin + 1 mM mevalonate
# [6] = 10 μM compactin + 50 μg/ml cholesterol, n = 2
# [7] = 10 μM compactin + 1 mM mevalonate
smiles,measurement,setting,value
CC[C@H](C)C(=O)O[C@H]1CCC=C2C=C[C@H](C)[C@H](CC[C@@H]3C[C@@H](O)CC(=O)O3)[C@H]21 [compactin],"FMLP-stimulated O2- formation, Extent",[1]; 4 μM compactin,28 ± 3.5 % of control
same,"FMLP-stimulated O2- formation, Rate",[1]; 4 μM compactin,43 ± 5.0 % of control
same,"FMLP-stimulated O2- formation, Extent",[1]; [5],96 ± 8.0 % of control
same,"FMLP-stimulated O2- formation, Rate",[1]; [5],97 ± 4.0 % of control
same,"FMLP-stimulated O2- formation, Extent",[1]; 10 μM compactin,13 ± 0.4 % of control
same,"FMLP-stimulated O2- formation, Rate",[1]; 10 μM compactin,19 ± 3.9 % of control
same,"FMLP-stimulated O2- formation, Extent",[1]; [6],22 % of control
same,"FMLP-stimulated O2- formation, Rate",[1]; [6],28 % of control
same,"FMLP-stimulated O2- formation, Extent",[1]; [7],114 ± 1.6 % of control
same,"FMLP-stimulated O2- formation, Rate",[1]; [7],115 ± 7.6 % of control
same,expression of cytochrome b558,[2],normal
same,Rap1 membrane association after treatment,[3],a portion of this GTP-binding protein was still membrane associated
same,appearance of Rap1 in the cytosolic fraction,[3],large amounts
same,total Rap1 previously associated with the membrane pellet now soluble,"[3]; densitometry, n=3",60-70%
same,"inhibition of NADPH oxidase activation, effective concentrations",[4],micromolar concentrations
same,inhibition at 10 µM,"[4]; Homo sapiens, HL-60, 10 μM compactin, response to FMLP or PMA, read-out: inhibition of O2- formation",> 85%
same,IC50,"[4]; Homo sapiens, DMSO-differentiated HL-60, response to FMLP or PMA, read-out: half-maximal inhibition of O2- formation",0.4 to 2 µM
same,ability of HL-60 cells to generate O2-,[4]; response to receptor stimuli and downstream activators,markedly inhibited
